The text below walks through data of patent publication US20220380342A1, “BIPHENYL DERIVATIVES FOR BLOCKING PD-1/PD-L1 INTERACTION, PREPARATION METHOD THEREFOR AND USE THEREOF” (Abbisko Therapeutics Co., Ltd., priority 2019, published 2022).

Experiment [1] concerns the target T1, interaction between PD-1 and PD-L1 expressed on cell surfaces (Jurkat/NF-κB-luc/PD1 cells cocultured with Raji-PD-L1 cells) (Homo sapiens, UniProt Q9NZQ7).
T1 construct: expressed in transfected cells; host or cells: Raji cells (PD-L1); Jurkat cells (PD-1, NF-κB-luc reporter)
Briefly: Jurkat reporter gene cellular assay. The format is cell-based. To be noted: OKT3 1 μg/mL stimulation, 6 hrs, activation fold vs DMSO. How it is done:
The effect of compounds of the examples of the present invention on the interaction between PD-1 and PD-L1 expressed on cell surfaces, and the related influence on T cell functions, were determined by a Jurkat reporter gene cellular assay.
Briefly, the reporter gene plasmid of NF-κB-luc and the plasmid of human PD-1 were transfected into Jurkat cells to establish a stably transfected cell line capable of stably expressing both PD-1 and NF-κB-Luc reporter genes; the expression level of PD-1 on the cell surface was confirmed by flow cytometry; and the expression of the reporter gene was confirmed via the response of the reporter gene stimulated by OKT-3 and Raji cells.
In addition, the plasmid of human PD-L1 was transfected into Raji cells to obtain a cell line capable of stably expressing PD-L1. Jurkat/NF-κB-luc/PD1 cells and Raji-PD-L1 cells were then cocultured and stimulated with OKT-3. On this basis, the compounds were added, and the enhancement of the signal pathway of T cell activation by the inhibitory effect of the compounds on the interaction between PD-1 and PD-L1 was evaluated by readings of reporter gene responses. The specific experimental process was as follows:
1) 30 μL of compound or antibody solution was added to each well of a white 96-well plate (Corning, 3610) at different diluted concentrations, and 10 μL of OKT3 (Biolegend, 317326) was then added (the final concentration of OKT3: 1 μg/mL);
2) 20 μL of Raji-PD-L1 cell suspension was added to each well with 5*10^4 cells for each well, and was incubated in an incubator for 20 min;
3) 20 μL of Jurkat/NF-Kb-luc/PD-1 cell suspension was added to each well with 5*10^4 cells for each well, and was well mixed, and 6 hrs later, Bright-glo (Promega, E2620) was applied and plates were read on Envision;
4) The reading of each well treated with the compound was compared with the reading of each well treated with DMSO to obtain the activation fold of the compound; and
5) EC50 values of compounds of the examples of the present invention were determined by non-linear regression analysis of activation folds at different compound concentrations.
A general note: Reporter assays use an easily measured gene product as a stand-in for the process of interest.

Experiment [2] concerns the target T2, interaction between PD-1 and PD-L1 (Homo sapiens, UniProt Q9NZQ7).
T2 construct: purchased Cisbio 64ICP01PEG or 64ICP01PEH
Briefly: PD1-PDL1 HTRF binding activity test. As to conditions: Cisbio PD-1/PD-L1 binding assay kit; percent inhibition vs DMSO. The protocol: The effect of compounds of the examples of the present invention on the interaction between PD-1 and PD-L1 was determined by the PD-1/PD-L1 binding assay kit from Cisbio (#64ICP01PEG or 64ICP01PEH). The detailed experimental process was as follows:
1) Pre-diluted compound solution, 4 μL of Tag1-PD-L1 and 4 μL of Tag2-PD1 were added to each well of a 384-well plate;
2) After the mixture was incubated at room temperature for 15 min, 5 μL of anti-Tag1-Eu3+ antibody and 5 μL of anti-Tag2-XL665 antibody were then added;
3) After incubated for 2 hrs at room temperature or overnight at 4° C., plates were read on Envision of Perkin Elmer; and readings at 665 nm and 620 nm were recorded, and the ratio of the two readings was taken as a reading for each well;
4) The reading of each well after compound treatment was compared with the reading of DMSO treated wells to obtain the percent inhibition of the compound; and
5) IC50 values of compounds of the examples of the present invention were determined by non-linear regression analysis of percent inhibition at different compound concentrations.
In general terms: TR-FRET usually uses a lanthanide donor and a delayed reading to cut background.

pEC50, pIC50: −log10 of the molar value.

T1 sequence (Q9NZQ7 19-290): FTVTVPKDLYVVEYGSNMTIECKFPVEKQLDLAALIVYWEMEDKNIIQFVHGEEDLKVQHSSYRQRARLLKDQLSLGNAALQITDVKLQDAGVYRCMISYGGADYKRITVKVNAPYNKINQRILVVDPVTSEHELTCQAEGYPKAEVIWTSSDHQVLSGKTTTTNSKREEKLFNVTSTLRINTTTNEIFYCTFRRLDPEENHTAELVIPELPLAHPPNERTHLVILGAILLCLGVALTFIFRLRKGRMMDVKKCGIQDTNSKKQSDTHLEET
T2 sequence (Q9NZQ7 19-238 limits assumed): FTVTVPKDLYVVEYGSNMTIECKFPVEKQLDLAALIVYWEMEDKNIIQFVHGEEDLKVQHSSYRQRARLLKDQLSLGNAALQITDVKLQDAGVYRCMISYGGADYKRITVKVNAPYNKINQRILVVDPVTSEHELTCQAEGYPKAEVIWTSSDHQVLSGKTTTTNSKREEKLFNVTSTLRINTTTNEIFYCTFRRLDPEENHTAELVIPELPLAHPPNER

Take `Cc1c(NC(=O)c2cc(C3CC3)c(CNC3COC3)cn2)cccc1-c1cccc(NC(=O)c2cc(C3CC3)c(CN3CCCC[C@H]3C(=O)O)cn2)c1C` [Example 23, (S)-1-((4-cyclopropyl-6-((3′-(4-cyclopropyl-5-((oxetan-3-ylamino)methyl)picolinamido)-2,2′-dimethyl-[1,1′-biphenyl]-3-yl)carbamoyl)pyridin-3-yl)methyl)piperidine-2-carboxylic acid]: in experiment [1], the pEC50 was 7.11. This compound had a negative-log IC50 (pIC50) in experiment [2] of 8.59.

As to `Cc1c(NC(=O)c2cc(C3CC3)c(CNC3CCOCC3)cn2)cccc1-c1cccc(NC(=O)c2cc(C3CC3)c(CN3CCCC[C@H]3C(=O)O)cn2)c1C` [Example 24, (S)-1-((4-cyclopropyl-6-((3′-(4-cyclopropyl-5-(((tetrahydro-2H-pyran-4-yl)amino)methyl)picolinamido)-2,2′-dimethyl-[1,1′-biphenyl]-3-yl)carbamoyl)pyridin-3-yl)methyl)piperidine-2-carboxylic acid], the pEC50 in experiment [1] was 7.28. Further, the pIC50 in experiment [2] was 9.04.

With `Cc1c(NC(=O)c2cc(C3CC3)c(CN[C@H]3CCOC3)cn2)cccc1-c1cccc(NC(=O)c2cc(C3CC3)c(CN3CCCC[C@H]3C(=O)O)cn2)c1C` [Example 25, (S)-1-((4-cyclopropyl-6-((3′-(4-cyclopropyl-5-((((S)-tetrahydrofuran-3-yl)amino)methyl)picolinamido)-2,2′-dimethyl-[1,1′-biphenyl]-3-yl)carbamoyl)pyridin-3-yl)methyl)piperidine-2-carboxylic acid], in experiment [1], the negative logarithm of the EC50 (pEC50) was 8.06. The compound also showed a negative-log IC50 (pIC50) in experiment [2] of 9.04.

Take `Cc1c(NC(=O)c2cc(C3CC3)c(CN3CCC[C@H]3CO)cn2)cccc1-c1cccc(NC(=O)c2cc(C3CC3)c(CN3CCCC[C@H]3C(=O)O)cn2)c1C` [Example 27, (S)-1-((4-cyclopropyl-6-((3′-(4-cyclopropyl-5-(((S)-2-(hydroxymethyl)pyrolidin-1-yl)methyl)picolinamido)-2, 2′-dimethyl-[1,1′-biphenyl]-3-yl)carbamoyl)pyridin-3-yl)methyl)piperidine-2-carboxylic acid]: the pEC50 in experiment [1] is 7.56. For the same compound, the pIC50 in experiment [2] is 8.58.

The compound `Cc1c(NC(=O)c2cc(C3CC3)c(CN3CCC[C@@H]3CO)cn2)cccc1-c1cccc(NC(=O)c2cc(C3CC3)c(CN3CCCC[C@H]3C(=O)O)cn2)c1C` [Example 28, (S)-1-((4-cyclopropyl-6-((3′-(4-cyclopropyl-5-(((R)-2-(hydroxymethyl)pyrolidin-1-yl)methyl)picolinamido)-2, 2′-dimethyl-[1,1′-biphenyl]-3-yl)carbamoyl)pyridin-3-yl)methyl)piperidine-2-carboxylic acid] showed a negative-log EC50 (pEC50) in experiment [1] of 7.45. Further, in experiment [2], the negative-log IC50 (pIC50) was 8.38.

Consider `CCOC(=O)[C@@H](CO)NCc1cnc(C(=O)Nc2cccc(-c3cccc(NC(=O)c4cc(C5CC5)c(CN5CCCC[C@H]5C(=O)O)cn4)c3C)c2C)cc1C1CC1` [Example 29, (S)-1-((4-cyclopropyl-6-((3′-(4-cyclopropyl-5-((((R)-1-ethoxy-3-hydroxy-1-oxopropan-2-yl)amino)methyl)picolinamido)-2,2′-dimethyl-[1,1′-biphenyl]-3-yl)carbamoyl)pyridin-3-yl)methyl)piperidine-2-carboxylic acid], for which, in experiment [1], the pEC50 is 6.94. The compound also showed a negative-log IC50 (pIC50) in experiment [2] of 8.79.

`Cc1c(NC(=O)c2cc(C3CC3)c(CN[C@H](CO)C(=O)O)cn2)cccc1-c1cccc(NC(=O)c2cc(C3CC3)c(CN3CCCC[C@H]3C(=O)O)cn2)c1C` [Example 30, (S)-1-((6-((3′-(5-((((R)-1-carboxy-2-hydroxyethyl)amino)methyl)-4-cyclopropylpicolinamido)-2,2′-dimethyl-[1,1′-biphenyl]-3-yl)carbamoyl)-4-cyclopropylpyridin-3-yl)methyl)piperidine-2-carboxylic acid] had a pEC50 in experiment [1] of 7.74. The same compound gave a pIC50 in experiment [2] of 9.01.

As for `CCOC(=O)[C@H](CO)NCc1cnc(C(=O)Nc2cccc(-c3cccc(NC(=O)c4cc(C5CC5)c(CN5CCCC[C@H]5C(=O)O)cn4)c3C)c2C)cc1C1CC1` [Example 31, (S)-1-((4-cyclopropyl-6-((3′-(4-cyclopropyl-5-((((S)-1-ethoxy-3-hydroxy-1-oxopropan-2-yl)amino)methyl)picolinamido)-2,2′-dimethyl-[1,1′-biphenyl]-3-yl)carbamoyl)pyridin-3-yl)methyl) piperidine-2-carboxylic acid], in experiment [1], the pEC50 was 7.37. This compound also gave a pIC50 in experiment [2] of 8.59.

In experiment [1], `Cc1c(NC(=O)c2cc(C3CC3)c(CN[C@@H](CO)C(=O)O)cn2)cccc1-c1cccc(NC(=O)c2cc(C3CC3)c(CN3CCCC[C@H]3C(=O)O)cn2)c1C` [Example 32, (S)-1-((6-((3′-(5-((((S)-1-carboxy-2-hydroxyethyl)amino)methyl)-4-cyclopropylpicolinamido)-2,2′-dimethyl-[1,1′-biphenyl]-3-yl)carbamoyl)-4-cyclopropylpyridin-3-yl)methyl) piperidine-2-carboxylic acid] gave a pEC50 of 7.35. In experiment [2], the pIC50 was 8.73.

`Cc1c(NC(=O)c2cc(C3CC3)c(CNCCO)cn2)cccc1-c1cccc(NC(=O)c2cc(C3CC3)c(CN[C@H](CO)C(=O)O)cn2)c1C` [Example 35, ((4-cyclopropyl-6-((3′-(4-cyclopropyl-5-(((2-hydroxyethyl)amino)methyl)picolinamido)-2,2′-dimethyl-[1,1′-biphenyl]-3-yl)carbamoyl)pyridin-3-yl)methyl)-D-serine] gave a pEC50 in experiment [1] of 7.54. The negative-log IC50 (pIC50) in experiment [2] is 8.71.

With `CCOC(=O)[C@@H](CO)NCc1cnc(C(=O)Nc2cccc(-c3cccc(NC(=O)c4cc(C5CC5)c(CNCCO)cn4)c3C)c2C)cc1C1CC1` [Example 35-1, ethyl ((4-cyclopropyl-6-((3′-(4-cyclopropyl-5-(((2-hydroxyethyl)amino)methyl)picolinamido)-2,2′-dimethyl-[1,1′-biphenyl]-3-yl)carbamoyl)pyridin-3-yl)methyl)-D-serinate], the pEC50 in experiment [1] is 6.64. This compound also gave a pIC50 in experiment [2] of 8.52.

`Cc1c(NC(=O)c2cc(C3CC3)c(CN[C@H](CO)C(=O)O)cn2)cccc1-c1cccc(NC(=O)c2cc(C3CC3)c(CN3CC(C)(O)C3)cn2)c1C` [Example 36, ((4-cyclopropyl-6-((3′-(4-cyclopropyl-5-((3-hydroxy-3-methylazetidin-1-yl)methyl)picolinamido)-2,2′-dimethyl-[1,1′-biphenyl]-3-yl)carbamoyl)pyridin-3-yl)methyl)-D-serine]: the negative logarithm of the EC50 (pEC50) in experiment [1] was 7.28. In experiment [2], the pIC50 was 9.14.

The compound `Cc1c(NC(=O)c2cc(C3CC3)c(CNCCO)cn2)cccc1-c1cccc(NC(=O)c2cc(C3CC3)c(CN[C@@H](CO)C(=O)O)cn2)c1C` [Example 37, ((4-cyclopropyl-6-((3′-(4-cyclopropyl-5-(((2-hydroxyethyl)amino)methyl)picolinamido)-2,2′-dimethyl-[1,1′-biphenyl]-3-yl)carbamoyl)pyridin-3-yl)methyl)-L-serine] gave a pEC50 in experiment [1] of 7.60. In experiment [2], this compound had a pIC50 of 9.02.

The compound `CCOC(=O)[C@H](CO)NCc1cnc(C(=O)Nc2cccc(-c3cccc(NC(=O)c4cc(C5CC5)c(CNCCO)cn4)c3C)c2C)cc1C1CC1` [Example 37-1, Ethyl ((4-cyclopropyl-6-((3′-(4-cyclopropyl-5-(((2-hydroxyethyl)amino)methyl)picolinamido)-2,2′-dimethyl-[1,1′-biphenyl]-3-yl)carbamoyl)pyridin-3-yl)methyl)-L-serinate] gave a pEC50 in experiment [1] of 6.58. In addition, the pIC50 in experiment [2] is 8.25.

Broadly, the pEC50 is the EC50 on a negative log10 scale, so that one unit is a factor of ten. One may read the pIC50 as the IC50 on a negative log10 scale, so that one unit is a factor of ten. Higher therefore signals a small IC50.
